From BindingDB's records for doi:10.1021/jm031026e (Universit&#224, 2004) come the findings set out here.

Sequence of Sigma non-opioid intracellular receptor 1 (Cavia porcellus) (Q60492 whole entry, looked up): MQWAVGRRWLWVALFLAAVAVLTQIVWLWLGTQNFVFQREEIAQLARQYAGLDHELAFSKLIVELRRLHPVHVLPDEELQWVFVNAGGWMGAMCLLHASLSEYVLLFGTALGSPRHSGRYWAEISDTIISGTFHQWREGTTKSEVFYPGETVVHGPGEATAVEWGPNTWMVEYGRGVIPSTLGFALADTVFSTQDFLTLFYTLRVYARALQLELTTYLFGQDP

The test concerns the target Sigma non-opioid intracellular receptor 1 (Cavia porcellus) (UniProt Q60492). The experiment in a line: In vitro binding affinity at opioid sigma-1 receptor in guinea pig brain membranes by (+)-[3H]pentazocine displacement.
The Ki is the dissociation constant of the complex between target and ligand, obtained from inhibition or displacement. A higher Ki goes with a looser hold on the target. `c1ccc2c(CCCN3CCN(C4CCCCC4)CC3)cccc2c1` [1-Cyclohexyl-4-(3-naphthalen-1-yl-propyl)-piperazine] had a Ki of 2.16 nM. In the case of `c1ccc2c(CCCCN3CCN(C4CCCCC4)CC3)cccc2c1` [1-Cyclohexyl-4-(4-naphthalen-1-yl-butyl)-piperazine], affinity was put at a Ki of 0.22 nM. In turn, `COc1cccc2c1CCCC2N1CCN(C2CCCCC2)CC1` (centres undefined) [1-Cyclohexyl-4-(5-methoxy-1,2,3,4-tetrahydro-naphthalen-1-yl)-piperazine] came in with an inhibition constant (Ki) of 0.4 nM. The same measure for `COc1cccc2c1CCCC2CN1CCN(C2CCCCC2)CC1` (centres undefined) [1-Cyclohexyl-4-(5-methoxy-1,2,3,4-tetrahydro-naphthalen-1-ylmethyl)-piperazine]: 0.31 nM. The result for `c1ccc2c(CCCCCN3CCN(C4CCCCC4)CC3)cccc2c1` [1-Cyclohexyl-4-(5-naphthalen-1-yl-pentyl)-piperazine] reads 2.4 nM; that for `COc1cccc2c1CCCC2CCN1CCN(C2CCCCC2)CC1` (centres undefined) [1-Cyclohexyl-4-[2-(5-methoxy-1,2,3,4-tetrahydro-naphthalen-1-yl)-ethyl]-piperazine], 1.57 nM. The result for `c1ccc2c(c1)CCCC2CCCN1CCN(C2CCCCC2)CC1` (centres undefined) [1-Cyclohexyl-4-[3-(1,2,3,4-tetrahydro-naphthalen-1-yl)-propyl]-piperazine] reads 0.61 nM; that for `COc1ccc2c(c1)CCCC2CCCN1CCN(C2CCCCC2)CC1` (centres undefined) [1-Cyclohexyl-4-[3-(6-methoxy-1,2,3,4-tetrahydro-naphthalen-1-yl)-propyl]-piperazine], 0.36 nM. Consider `COc1ccc2c(c1)C(CCCN1CCN(C3CCCCC3)CC1)CCC2` (centres undefined) [1-Cyclohexyl-4-[3-(7-methoxy-1,2,3,4-tetrahydro-naphthalen-1-yl)-propyl]-piperazine], for which affinity was put at a Ki of 9.04 nM. Compound `c1ccc2c(c1)CCCC2CCCCCN1CCN(C2CCCCC2)CC1` (centres undefined) [1-Cyclohexyl-4-[5-(1,2,3,4-tetrahydro-naphthalen-1-yl)-pentyl]-piperazine] displayed a Ki of 1.45 nM. The result for `COc1cccc2c1CCCC2CCCCCN1CCN(C2CCCCC2)CC1` (centres undefined) [1-Cyclohexyl-4-[5-(5-methoxy-1,2,3,4-tetrahydro-naphthalen-1-yl)-pentyl]-piperazine] reads 1.52 nM. The same measure for `COc1cccc2c1CCCC2CCCCCCN1CCN(C2CCCCC2)CC1` (centres undefined) [1-Cyclohexyl-4-[6-(5-methoxy-1,2,3,4-tetrahydro-naphthalen-1-yl)-hexyl]-piperazine]: 3.07 nM; for `Oc1ccc2c(c1)CCCC2CCCN1CCN(C2CCCCC2)CC1` (centres undefined) [5-[3-(4-Cyclohexyl-piperazin-1-yl)-propyl]-5,6,7,8-tetrahydro-naphthalen-2-ol]: 0.69 nM; for `c1ccc(CCN2CCCCC2)cc1` [N-phenethylpiperidine]: 309 nM.
